{"source": "patent US6352980B1", "about": "“Estrenes for inducting hypothalamic effects” (Pherin Pharmaceuticals, Inc., priority 1991, dated 2002)", "format_in_all_cases": "in vivo, human", "key": {"VNO [1]": {"tested_on": "VNO", "experiment": "Electro-vomeronasogram (EVG) (Example 57)", "settings": "for EVG response to olfactants delivered to the VNO: male and female subjects, 400 fmoles, FIG. 7B; for EVG response in female subjects: 30 female subjects (ages 20-45), FIG. 6B; for EVG response in the male VNO: male subjects, FIG. 6A and FIG. 7; for organ response (EVG data): additional tests on 13 estranes", "experimental": "The following electrophysiological studies were performed in 60 clinically normal human volunteers of both sexes (30 male and 30 female) whose ages ranged from 20 to 45 years. No anesthetics were used, and female subjects were excluded if pregnant.\n(§1) The stimulation and recording system consists of a “multifunctional miniprobe” described elsewhere (Monti-Bloch, L. and Grosser, B. l. (1991) “Effect of putative pheromones on the electrical activity of the human vomeronasal organ and olfactory epithelium,” J. Steroid Biochem. Molec. Biol. 39:573-582.). The recording electrode is a 0.3 mm silver ball attached to a small (0.1 mm) silver wire insulated with Teflon© the surface of the electrode is first treated to produce a silver chloride interface, and is then covered with gelatin It is positioned within a small caliber Teflon© catheter (dia=5 mm) such that the tip of the electrode protrudes approximately 2 mm. The Teflon© catheter is 10 cm in length and constitutes the terminal extension for a multichannel delivery system which delivers a continuous air stream carrying discreet pulses of chemosensory stimuli. The air stream first passes into a small chamber and is bubbled through a solution containing either a vomeropherin or an olfactant in a diluent or the diluent alone. A solenoid is used to rapidly redirect the air stream from the chamber to a route which bypasses the chamber. This creates a discreet pulse of stimulant in the air stream. A second, outer Teflon® tube with a diameter of 2 mm surrounds the catheter-electrode assemblage, and its central end is connected to an aspirator that provides continuous suction of 3 ml/s. This concentric arrangement of the outer suction tube allows the emitted chemosensory stimuli to be localized to an area we call a “minifield” (approx. dia=1 mm), and it avoids diffusion of substances either to the area outside the intended stimulation site or into the respiratory system. The entire stimulating and recording assemblage may be positioned either on the neurosensory epithelium within the VNO, or on the surface of the olfactory or respiratory epithelium.\nElectro-vomeronasogram (EVG): Recordings are carried out in a quiet room with the subject supine; the multi-functional miniprobe is initially stabilized within the nasal cavity using a nasal retractor placed in the vestibule. Reference and ground electrodes consist of silver discs (8 mm), both of which are positioned on the glabella.\nThe entrance to the VNO, or vomeronasal pit, is identified by first dilating the nasal aperture and vestibule. A 6× magnifying binocular loupe with halogen illumination is then used to introduce the tip of the Teflon® catheter and recording electrode assemblage into the VNO opening where it is stabilized at an approximate depth of 1 mm within the vomeronasal passage. Optimal placement of the recording electrode is signaled after testing for an adequate depolarization in response to a test substance.\nElectrical signals from the recording electrode are fed to a DC amplifier after which they are digitized, computer monitored, and stored. The peak-to-peak amplitude of the signals is measured, and the area under the depolarization wave is integrated, while continuously monitoring the signal both on the computer screen and on a digital oscilloscope. Artifacts produced by respiratory movements are deleted by training the subjects to practice mouth breathing with velopharyngeal closure.\n(§2) Chemosensory Stimulants: Olfactory test substances are cineole, and 1-carvone; vomeropherins are A, B, C, E and F. (Vomeropherins were supplied by Pherin Corporation, Menlo Park, Calif.), Samples of vomeropherins In. concentration of 25-800 fmoles are delivered in the continuous air stream for durations from 300 milliseconds to 1 second. Usually, intervals of 3 to 5 minutes separated each series of short test pulses. […]"}, "[2]": {"tested_on": "olfactory epithelium (OE)", "experiment": "Electro-olfactgram (EOG) (Example 57)", "settings": "20 subjects (10 males, 10 females); 200 fmoles vomeropherins, 400 fmoles olfactants; one second pulses; FIG. 7A", "from_the_text": "as §1, §2\n(§3) Statistical Analysis: EVGs or EOGS, peak-to-peak changes and frequency changes of other parameters were measured and statistically analyzed. The significance of the results was determined by either using paired t-tests or analysis of variance (ANOVA).\nEffects of Vomeropherins on the EOG: The summated receptor potential from the olfactory epithelium (OE) was recorded in 20 subjects: 10 males and 10 females. […]"}, "VNO [3]": {"tested_on": "VNO", "experiment": "Electrodermal activity (EDA) on vomeropherin stimulation of the VNO", "settings": "n=30, p<0.01; for electrodermal activity (EDA): female subjects", "experimental": "(§4) Cortical evoked activity was induced by VNO stimulation with vomeropherins, and olfactory stimulation with odorants delivered in 300 ms air pulses. It was recorded using standard electroencephalographic (EEG) electrodes placed at positions Cz-A1 and Tz-A1 of the international […] system; the ground electrode was placed on the mastoid process. Electrodermal activity (EDA) was recorded using standard 8 mm silver electrodes in contact with palmar skin of the medial and ring fingers, respeCtively, through a conductive gel interface. Skin temperature (ST) was recorded by a small (1.0 mm) thermistor probe placed in the right ear lobe. Peripheral arterial pulse (PAP) was monitored with a plethysmograph attached to the tip of the index finger. Respiratory frequency (RF) was measured with an adjustable strain gauge placed around the lower thorax. All electrical signals were DC amplified, digitized (MP-100, Biopac Systems) and continuously monitored utilizing a computer.\nas §3\nReflex Effects of Vomeropherins: Studies were conducted to determine the central nervous system (CNS) reflex responses to vomeropherin stimulation of the VNO. The sexually dimorphic local responses induced by vomeropherins (FIGS. 6A and B) were mirrored in the autonomic response of male & female subjects. […] In female subjects."}, "VNO [4]": {"tested_on": "VNO", "experiment": "Cortical activity (EEG) on VNO stimulation with vomeropherins", "settings": "for EEG-beta activity / EEG-alpha activity: additional tests on 13 estranes of Chart 1", "experimental": "as §4, §3\n[…] […] Synchronization of the EEG was sustained for 1.5 to 2.7 minutes after application of a single pulse of active substance."}, "VNO [5]": {"tested_on": "VNO", "experiment": "Skin temperature (ST) on vomeropherin stimulation of the VNO", "experimental": "as §4, §3\nIn female subjects vomeropherins produced changes in EDA and ST with a greater standard deviation than in males."}, "VNO [6]": {"tested_on": "VNO", "experiment": "Autonomic responses to Estrene stimulation of the VNO (Example 54)", "settings": "40 male subjects, 1 second pulse", "experimental": "Various autonomic parameters were monitored while 1,3,5(10),16-Estratetraen-3-yl-acetate was administered to 40 male subjects using the procedure described in Example 20. Propylene glycol was also administered as a control. The ligand was administered as a 1 second pulse. The change in autonomic function was first noted within 2 seconds and lasted for up to 45 seconds."}, "[7]": {"settings": "females, single pulse 200 fmoles, FIG. 6F"}, "[8]": {"settings": "30 female subjects, p<0.01 compared to A and C, FIG. 6H"}}, "note": "“Also recorded” adds a separate entry of the source.", "data": [{"smiles": "C=C(C)C1CC=C(C)C(=O)C1", "note": "(centres unmarked) [1-carvone]", "values": [{"measurement": "EVG response to olfactants delivered to the VNO", "setting": "VNO [1]", "value": "only a minor local response in the VNO; also recorded: do not induce a significant EVG response"}, {"measurement": "EOG local response of the OE", "setting": "[2]", "value": "strong response in both men and women; also recorded: significant (p<0.01) local response"}]}, {"smiles": "CC(=O)Oc1ccc2c(c1)CC[C@@H]1[C@@H]2CC[C@]2(C)C=CC[C@@H]12", "note": "[A, 1,3,5(10),16-Estratetraen-3-yl acetate]", "values": [{"measurement": "skin resistance (electrodermal activity, EDA)", "setting": "VNO [3]; male subjects, FIG. 6C", "value": "decreased skin resistance"}, {"measurement": "alpha cortical activity", "setting": "VNO [4]; males, 200 fmoles, air pulses 300 ms to 1 sec, FIG. 6E", "value": "significantly increased alpha cortical activity; also recorded: strongest effect"}, {"measurement": "skin temperature (ST)", "setting": "VNO [5]; 30 male subjects, p<0.01, FIG. 6G", "value": "significant increase in skin temperature"}, {"measurement": "duration of change in autonomic function", "setting": "VNO [6]", "value": "up to 45 seconds"}, {"measurement": "time at which change in autonomic function was first noted", "setting": "VNO [6]", "value": "≤ 2", "unit": "s"}, {"measurement": "integrated receptor potential in the VNO", "setting": "VNO [6]; compared to propylene glycol control, FIG. 4A", "value": "significant change"}, {"measurement": "galvanic skin response", "setting": "VNO [6]; compared to propylene glycol control, FIG. 4B", "value": "significant change"}, {"measurement": "skin temperature", "setting": "VNO [6]; compared to propylene glycol control, FIG. 4C", "value": "significant change"}, {"measurement": "EVG response in female subjects", "setting": "VNO [1]; 100 fmoles", "value": "small effect that was significantly different from F"}, {"measurement": "EVG average response (mean)", "setting": "VNO [1]; male subjects (ages 20 to 38), 100 fmoles, 1 second pulses, FIG. 6A", "value": 11.4, "unit": "mV"}]}, {"smiles": "C[C@@]12C=CC[C@H]1[C@@H]1CCC3=CC(=O)CC[C@]3(C)[C@H]1CC2", "note": "[B, Androsta-4,16-dien-3-one, reference compound]", "values": [{"measurement": "electrodermal activity (EDA)", "setting": "VNO [3]", "value": "greater decrease in EDA than A or C"}, {"measurement": "alpha cortical activity", "setting": "VNO [4]; [7]", "value": "increased alpha cortical"}, {"measurement": "skin temperature (ST)", "setting": "VNO [5]; [8]", "value": "significant increase in skin temperature"}, {"measurement": "EVG response in the male VNO", "setting": "VNO [1]; 100 fmoles", "value": "significantly reduced responses"}, {"measurement": "EOG local response of the OE", "setting": "[2]", "value": "only vomeropherin having significant effect in the OE; also recorded: significant (p<0.01) local response"}]}, {"smiles": "C[C@@]12C=CC[C@H]1[C@@H]1CCC3=CC(=O)CC[C@]3(O)[C@H]1CC2", "note": "[E7/N1, 10-HYDROXYESTRA-4,16-DIEN-3-ONE]", "values": [{"measurement": "EEG-beta activity", "setting": "VNO [4]; men, FIGS. 22-34 A", "value": "high EEG-betain men"}, {"measurement": "EEG-alpha activity", "setting": "VNO [4]; women, FIGS. 22-34 B", "value": "best EEG-alpha activity in women; also recorded: high EEG-alpha in women"}, {"measurement": "organ response (EVG data)", "setting": "VNO [1]; men, FIG. 21A", "value": "excellent organ response"}, {"measurement": "organ response (EVG data)", "setting": "VNO [1]; women, FIG. 20A", "value": "excellent organ response"}]}, {"smiles": "COC1=CCC2=C(CC[C@@H]3[C@@H]2CC[C@]2(C)C=CC[C@@H]32)C1", "note": "[E8/N1, 3-METHOXYESTRA-2,5(10),16-TRIENE]", "values": [{"measurement": "EEG-beta activity", "setting": "VNO [4]; men, FIGS. 22-34 A", "value": "best EEG-beta activity in men"}]}, {"smiles": "C[C@@]12C=CC[C@H]1[C@@H]1C[C@@H](O)c3cc(O)ccc3[C@H]1CC2", "note": "[E12/N1, ESTRA-1,3,5(10),16-TETRAEN-3,6β-DIOL]", "values": [{"measurement": "EEG-alpha activity", "setting": "VNO [4]; men, FIGS. 22-34 A", "value": "best EEG-alpha activity in men"}]}, {"smiles": "C[C@@]12C=CC[C@H]1[C@@H]1CCC3=C[C@H](O)CC[C@]3(C)[C@H]1CC2", "note": "[E, Androsta-4,16-dien-3α-ol]", "values": [{"measurement": "EVG response in female subjects", "setting": "VNO [1]; 100 fmoles", "value": "does not stimulate the VNO in female subjects"}, {"measurement": "EOG local response of the OE", "setting": "[2]", "value": "stronger olfactory effect than does F; also recorded: significant (p<0.01) local response"}]}, {"smiles": "C[C@@]12C=CC[C@H]1[C@@H]1CCC3=C[C@@H](O)CC[C@]3(C)[C@H]1CC2", "note": "[F, Androsta-4,16-dien-3β-ol, reference compound]", "values": [{"measurement": "electrodermal activity (EDA)", "setting": "VNO [3]", "value": "greater decrease in EDA than A or C"}, {"measurement": "alpha cortical activity", "setting": "VNO [4]; [7]", "value": "increased alpha cortical"}, {"measurement": "skin temperature (ST)", "setting": "VNO [5]; [8]", "value": "significant increase in skin temperature"}, {"measurement": "EVG response in female subjects", "setting": "VNO [1]; 100 fmoles", "value": "produced the most significant differences within the group"}, {"measurement": "EVG response in the male VNO", "setting": "VNO [1]; 100 fmoles", "value": "significantly reduced responses"}]}, {"smiles": "CC12CCC(CC1)C(C)(C)O2", "note": "[cineole]", "values": [{"measurement": "EVG response to olfactants delivered to the VNO", "setting": "VNO [1]", "value": "only a minor local response in the VNO; also recorded: do not induce a significant EVG response"}, {"measurement": "EOG local response of the OE", "setting": "[2]", "value": "strong response in both men and women; also recorded: significant (p<0.01) local response"}]}]}
